# Laboratory results reported in article PMC7321065, “Discovery of New Schiff Bases Tethered Pyrazole Moiety: Design, Synthesis, Biological Evaluation, and Molecular Docking Study as Dual Targeting DHFR/DNA Gyrase Inhibitors with Immunomodulatory Activity” (Molecules, 2020).
# Experiments:
# Bacillus subtilis [1] = assay: Inhibition zone, agar plate diffusion; assay type: cell-based; conditions: read-out: Inhibition zone (IZ)
# Description: (§1) Antimicrobial activities of the newly formed Schiff bases (6a–d, 7a–d, 8a–d, and 9a–d) and reference drugs were evaluated against three Gram-positive, three Gram-negative, and two fungi strain at Al-Azhar University, Cairo, Egypt. The inhibition zones (IZ, in mm ± standard deviation) and the minimal inhibitory concentration (MIC) (μg/mL) were determined by the conventional paper disk diffusion method.
# (§2) In Vitro Antimicrobial Activities
# (§3) The antimicrobial activities inhibition zone (IZ, mm±standard deviation) of pyrazole Schiff bases ( 6a-d , 7a-d, 8a-d and 9a-d ) was measurement according to the agar plate diffusion method. Briefly, 100 µl of the […]
# (§4) […] of each sample (at 0.5 mg/mL) was added to each well (10 mm diameter holes cut in the agar gel). The plates were incubated for 24 h at 37 °C (for bacteria and yeast) and for 72 h at 27 °C (for filamentous fungi), each test was repeated three times. After incubation, the microorganism's growth was observed. […]
# (§5) drugs while Amphotericin B was used as standard antifungal drug. The resulting inhibition zone diameters were measured in millimeters and used as criterion for the antimicrobial activity. Solvent controls (DMSO) were included in every experiment as negative controls. DMSO was used for dissolving […]
# (§6) the tested microorganisms. […]
# Enterococcus faecalis [2] = assay: Inhibition zone, agar plate diffusion; assay type: cell-based; conditions: read-out: Inhibition zone (IZ)
# Description: as §1, §2, §3, §4, §5, §6
# Escherichia coli [3] = assay: Inhibition zone, agar plate diffusion; assay type: cell-based; conditions: read-out: Inhibition zone (IZ)
# Description: as §1, §2, §3, §4, §5, §6
# Pseudomonas aeruginosa [4] = assay: Inhibition zone, agar plate diffusion; assay type: cell-based; conditions: read-out: Inhibition zone (IZ)
# Description: as §1, §2, §3, §4, §5, §6
# Candida albicans [5] = assay: Inhibition zone, agar plate diffusion; assay type: cell-based; conditions: read-out: Inhibition zone (IZ)
# Description: as §1, §2, §3, §4, §5, §6
# (§7) Bacteria were grown on nutrient agar medium, while fungi and yeast were grown on Sabouraud agar medium. […]
# Fusarium oxysporum [6] = assay: Inhibition zone, agar plate diffusion; assay type: cell-based; conditions: read-out: Inhibition zone (IZ)
# Description: as §1, §2, §3, §4, §5, §6, §7
# Salmonella typhi [7] = assay: Inhibition zone, agar plate diffusion; assay type: cell-based; conditions: Salmonella enterica, St, mm ± standard deviation, sample at 0.5 mg/mL, read-out: Inhibition zone (IZ)
# Description: as §1, §2, §3, §4, §5, §6, §7
# Staphylococcus aureus [8] = assay: Inhibition zone, agar plate diffusion; assay type: cell-based; conditions: read-out: Inhibition zone (IZ)
# Description: as §1, §2, §3, §4, §5, §6, §7
# Bacillus subtilis [9] = assay: MIC/MBC, paper disk diffusion; assay type: cell-based; conditions: for Fold more potent than Tetracycline (MIC) / MBC: B. subtilis; for MIC / MBC: Bacillus subtilis
# Description: as §1
# (§8) In Vitro Antimicrobial Activities […]
# (§9) DMSO was used for dissolving […]
# (§10) the tested microorganisms.
# (§11) The minimum inhibitory concentration (MIC), the minimum bactericidal concentration (MBC, µg/ml) and […]
# (§12) and 9b) were determined by the conventional technique termed paper disk diffusion, by applying paper […]
# (§13) Bacteria were grown on nutrient agar medium, while fungi and yeast were grown on Sabouraud agar medium. The purified streptomycin was dissolved in […]
# (§14) inoculated with test organism. Growth inhibition was examined after 24 hr. from incubation at 37 °C for bacteria and after 72 hr. incubation at 27 °C for fungi and yeast. Each test was repeated three times. MIC was expressed as the lowest concentration inhibiting test organism’s growth. […]
# Enterococcus faecalis [10] = assay: MIC/MBC, paper disk diffusion; assay type: cell-based; conditions: for MBC: E. faecalis
# Description: as §1, §8, §9, §10, §11, §12, §13, §14
# Escherichia coli [11] = assay: MIC/MBC, paper disk diffusion; assay type: cell-based; conditions: Escherichia coli; for MBC: E. coli
# Description: as §1, §8, §9, §10, §11, §12, §13, §14
# Pseudomonas aeruginosa [12] = assay: MIC/MBC, paper disk diffusion; assay type: cell-based; conditions: Pseudomonas aeruginosa; for MBC: P. aeruginosa
# Description: as §1, §8, §9, §10, §11, §12, §13, §14
# Salmonella typhi [13] = assay: MIC/MBC, paper disk diffusion; assay type: cell-based; conditions: for MIC / MBC: Salmonella enterica; for MBC: read-out: MBC
# Description: as §1, §8, §9, §10, §11, §12, §13, §14
# Staphylococcus aureus [14] = assay: MIC/MBC, paper disk diffusion; assay type: cell-based; conditions: for MIC / MBC: Staphylococcus aureus
# Description: as §1, §8, §9, §10, §11, §12, §13, §14
# Candida albicans [15] = assay: MIC/MFC, paper disk diffusion; assay type: cell-based; conditions: Candida albicans
# Description: as §1, §8, §9, §10, §11, §12, §13, §14
# Fusarium oxysporum [16] = assay: MIC/MFC, paper disk diffusion; assay type: cell-based; conditions: Fusarium oxysporum
# Description: as §1, §8, §9, §10, §11, §12, §13, §14
# [17] = system: hepatocellular carcinoma cell line (HepG2); assay: Antiproliferative activity, MTT assay; assay type: cell-based, human; conditions: for IC50: Homo sapiens, HepG2, 48 h, read-out: IC50 HepG-2
# Description: (§15) 3-[4, 5-Dimethyl-2-thiazolyl)-2, 5-diphenyl-2 H-tetrazolium bromide (MTT) protocol is based on the cleavage of the tetrazolium salt by mitochondrial dehydrogenases in viable cells. Cells were dispensed in a 96 well sterile microplate (5 x 10^4 cells/well), and incubated at 37 °C with series of different concentrations, in DMSO, of each tested compound or Doxorubicin ® (positive control) for 48 h in a serum free medium prior to the MTT assay. After incubation, media were carefully removed, 40 µL of MTT (2.5 mg/mL) were added to each well and then incubated for an additional 4 h. The purple formazan dye crystals were solubilized by the addition of 200 µL of DMSO. The absorbance was measured at 590 nm using a SpectraMax® Paradigm® Multi-Mode microplate reader. The relative cell viability was expressed as the mean percentage of viable cells compared to the untreated control cells.
# (§16) All experiments were conducted in triplicate and repeated in three different days. All the values were represented as mean ± SD. IC 50s were determined by probit analysis using SPSS software program (SPSS
# [18] = system: mammary gland breast cancer cell line (MCF-7); assay: Antiproliferative activity, MTT assay; assay type: cell-based, human; conditions: Homo sapiens, MCF7, 48 h, read-out: IC50 MCF-7
# Description: as §15, §16
# [19] = system: S. aureus ATCC 43300 (MRSA); assay: Inhibition zone against MDRB, agar plate diffusion; assay type: cell-based
# E. coli ATCC BAA-196 [20] = assay: Inhibition zone against MDRB, agar plate diffusion; assay type: cell-based
# [21] = system: P. aeruginosa ATCC BAA-2111; assay: Inhibition zone against MDRB, agar plate diffusion; assay type: cell-based
# E. coli ATCC BAA-196 [22] = assay: MIC/MBC against MDRB, paper disk diffusion; assay type: cell-based; conditions: Escherichia coli, ATCCBAA196
# Source text: (§17) The inhibition zone (IZ, mm±standard deviation) of pyrazole Schiff bases ( 6b, 7b, 7c, 8a, 8d and 9b) was
# (§18) measurement according to the agar plate diffusion method against a panel of multidrug-resistant bacteria
# (MDRB). […]
# [23] = system: P. aeruginosa ATCC BAA-2111; assay: MIC/MBC against MDRB, paper disk diffusion; assay type: cell-based; conditions: Pseudomonas aeruginosa, ATCCBAA2111
# Source text: as §17, §18
# (MDRB). […]
# S. aureus ATCC 33591 [24] = assay: MIC/MBC against MDRB, paper disk diffusion; assay type: cell-based; conditions: Staphylococcus aureus, ATCC33591
# Source text: as §17, §18
# (MDRB). […]
# [25] = system: S. aureus ATCC 43300 (MRSA); assay: MIC/MBC against MDRB, paper disk diffusion; assay type: cell-based; conditions: Staphylococcus aureus
# Source text: as §17, §18
# (MDRB). […]
# S. aureus ATCC 33591 [26] = assay: Inhibition zone against MDRB, agar plate diffusion; assay type: cell-based
compound,measurement,setting,value
"COc1ccc(Nc2n[nH]c(N=Cc3c(C)n(C)n(-c4ccccc4)c3=O)c2C(=O)Nc2ccccc2)cc1 [6b, 5-((1,5-Dimethyl-3-oxo-2-phenyl-2,3-dihydro-1H-pyrazol-4-yl)methyleneamino)-3-(p-methoxyphenylamino)-N-phenyl-1H-pyrazole-4-carboxamide]",zone of inhibition at 500 µg/mL,Bacillus subtilis [1],30 ± 0.5 mm
same,zone of inhibition at 500 µg/mL,Enterococcus faecalis [2],29 ± 0.55 mm
same,zone of inhibition at 500 µg/mL,Escherichia coli [3],25 ± 0.81 mm
same,zone of inhibition at 500 µg/mL,Pseudomonas aeruginosa [4],24 ± 0.2 mm
same,zone of inhibition at 500 µg/mL,Candida albicans [5],22 ± 0.56 mm
same,zone of inhibition at 500 µg/mL,Fusarium oxysporum [6],18 ± 0.15 mm
same,zone of inhibition at 500 µg/mL,Salmonella typhi [7],20 ± 0.16 mm
same,zone of inhibition at 500 µg/mL,Staphylococcus aureus [8],24 ± 0.12 mm
same,Fold more potent than Tetracycline (MIC),Bacillus subtilis [9],4 fold
same,MIC,Bacillus subtilis [9],7.81 µg/mL
same,MBC,Bacillus subtilis [9],14.1 µg/mL
same,MIC,Enterococcus faecalis [10],9.25 µg/mL
same,MBC,Enterococcus faecalis [10],18.5 µg/mL
same,MIC,Escherichia coli [11],62.5 µg/mL
same,MBC,Escherichia coli [11],87.5 µg/mL
same,MIC,Pseudomonas aeruginosa [12],31.2 µg/mL
same,MBC,Pseudomonas aeruginosa [12],53.1 µg/mL
same,MIC,Salmonella typhi [13]; S. typhi,15.6 µg/mL
same,MBC,Salmonella typhi [13]; S. typhi,28.1 µg/mL
same,MIC,Staphylococcus aureus [14],15.6 µg/mL
same,MBC,Staphylococcus aureus [14]; S. aureus,31.2 µg/mL
same,MFC,Candida albicans [15],53.1 µg/mL
same,MIC,Candida albicans [15],31.2 µg/mL
same,MFC,Fusarium oxysporum [16],88.8 µg/mL
same,MIC,Fusarium oxysporum [16],55.5 µg/mL
same,IC50,[17],3.42 ± 0.17 µM
same,IC50,[18],5.09 ± 0.52 µM
same,Mean Diameter of Inhibition Zone against MDRB,[19],21 ± 0.21 mm
same,Mean Diameter of Inhibition Zone against MDRB,E. coli ATCC BAA-196 [20],25 ± 0.15 mm
same,Mean Diameter of Inhibition Zone against MDRB,[21],21 ± 0.66 mm
same,MBC,E. coli ATCC BAA-196 [22],7.41 µg/mL
same,MIC,E. coli ATCC BAA-196 [22],3.9 µg/mL
same,MBC,[23],16 µg/mL
same,MIC,[23],7.81 µg/mL
same,MBC,S. aureus ATCC 33591 [24],15.6 µg/mL
same,MIC,S. aureus ATCC 33591 [24],7.81 µg/mL
same,MBC,[25],11.9 µg/mL
same,MIC,[25],6.25 µg/mL
"COc1ccc(Nc2n[nH]c(N=Cc3c(C)nn(-c4ccccc4)c3Cl)c2C(=O)Nc2ccccc2)cc1 [7b, 5-((5-Chloro-3-methyl-1-phenyl-1H-pyrazol-4-yl)methyleneamino)-3-(p-methoxyphenylamino)-N-phenyl-1H-pyrazole-4-carboxamide]",zone of inhibition at 500 µg/mL,Bacillus subtilis [1],28 ± 0.16 mm
same,zone of inhibition at 500 µg/mL,Enterococcus faecalis [2],25 ± 0.3 mm
same,zone of inhibition at 500 µg/mL,Escherichia coli [3],21 ± 0.14 mm
same,zone of inhibition at 500 µg/mL,Pseudomonas aeruginosa [4],24 ± 0.78 mm
same,zone of inhibition at 500 µg/mL,Candida albicans [5],21 ± 0.2 mm
same,zone of inhibition at 500 µg/mL,Fusarium oxysporum [6],17 ± 0.45 mm
same,zone of inhibition at 500 µg/mL,Salmonella typhi [7],22 ± 0.12 mm
same,zone of inhibition at 500 µg/mL,Staphylococcus aureus [8],23 ± 0.55 mm
same,Fold more potent than Tetracycline (MIC),Bacillus subtilis [9],5 fold
same,MIC,Bacillus subtilis [9],5.57 µg/mL
same,MBC,Bacillus subtilis [9],10.6 µg/mL
same,MIC,Enterococcus faecalis [10],3.9 µg/mL
same,MBC,Enterococcus faecalis [10],6.63 µg/mL
same,MIC,Escherichia coli [11],7.81 µg/mL
same,MBC,Escherichia coli [11],12.5 µg/mL
same,MIC,Pseudomonas aeruginosa [12],31.2 µg/mL
same,MBC,Pseudomonas aeruginosa [12],59.4 µg/mL
same,Fold more potent than Tetracycline (MIC),Salmonella typhi [13],8 fold
same,Fold more potent than the standard drug (MBC),Salmonella typhi [13]; S. typhi,~6.6 fold
same,MIC,Salmonella typhi [13]; S. typhi,3.9 µg/mL
same,MBC,Salmonella typhi [13]; S. typhi,6.63 µg/mL
same,Fold more potent than Tetracycline (MIC),Staphylococcus aureus [14]; S. aureus,32 fold
same,MIC,Staphylococcus aureus [14],1.95 µg/mL
same,MBC,Staphylococcus aureus [14]; S. aureus,3.7 µg/mL
same,MFC,Candida albicans [15],28.1 µg/mL
same,MIC,Candida albicans [15],15.6 µg/mL
same,MFC,Fusarium oxysporum [16],46.9 µg/mL
same,MIC,Fusarium oxysporum [16],31.2 µg/mL
same,Fold against doxorubicin (IC50),[17]; HepG-2,0.54 fold
same,IC50,[17],7.18 ± 0.49 µM
same,IC50,[18],4.81 ± 0.25 µM
same,Mean Diameter of Inhibition Zone against MDRB,[19],18 ± 0.11 mm
same,Mean Diameter of Inhibition Zone against MDRB,S. aureus ATCC 33591 [26],15 ± 0.41 mm
same,Mean Diameter of Inhibition Zone against MDRB,E. coli ATCC BAA-196 [20],20 ± 0.44 mm
same,Mean Diameter of Inhibition Zone against MDRB,[21],21 ± 0.33 mm
same,MBC,E. coli ATCC BAA-196 [22],18.5 µg/mL
same,MIC,E. coli ATCC BAA-196 [22],9.25 µg/mL
same,MBC,[23],15.6 µg/mL
same,MIC,[23],7.81 µg/mL
same,MBC,S. aureus ATCC 33591 [24],16 µg/mL
same,MIC,S. aureus ATCC 33591 [24],8.88 µg/mL
same,MBC,[25],15.6 µg/mL
same,MIC,[25],7.81 µg/mL
